The values below come from the supplement of paper PMC4862054.

Settings in all cases: 72 h
The test system of experiment [1] is CAL-148. On the procedure:
(§1)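 Drug sensitivity and resistance testing (DSRT) of breast cancer cell lines in 384-well plates, 5 concentrations in 10-fold dilutions over a compound-specific 10,000-fold range. After 72 h, cytotoxicity was read by CellTox Green fluorescence and viability by CellTiter-Glo luminescence (multiplexed), normalised to DMSO and benzethonium chloride controls. EC50 is the inflection point of the fitted dose-response curve (bottom asymptote free, so it can be relative for partial curves) and is censored at the highest tested concentration. Rows with DSS 0 (no meaningful response) were excluded.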

Experiment [2] relates to CAL-120. In a few lines: (§2)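 Breast cancer cell lines (20 µl suspension) were seeded into 384-well plates holding compound at 5 concentrations in 10-fold steps over a compound-specific 10,000-fold range, then incubated 72 h. Cell death was read first by CellTox Green fluorescence (485/520 nm), then viability by CellTiter-Glo luminescence after 10 min at room temperature. Each plate was normalised to 0.1 % DMSO and a positive kill control. EC50 was fitted from the dose-response curves and censored at the top concentration.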

In experiment [3] the test system is BT-549. On the procedure:
as §1

Experiment [4] concerns CAL-51. In a few lines: (§3)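 Each 384-well plate was pre-loaded with compound dissolved in 5 µl medium, received breast cancer cells in 20 µl suspension, and was incubated 72 h. A 2.5 µl addition of CellTiter-Blue for 2 h at 37 °C was followed by a fluorescence read at 560/590 nm. Data were normalised per plate to vehicle and a positive kill control and checked by Z'-factor. EC50 was fitted from the percent-inhibition dose-response curve, censored at the highest concentration, excluding rows with a drug sensitivity score of zero.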

Experiment [5] has as its system DU-4475. In a few lines: as §3
The test system of experiment [6] is HDQ-P1. In outline:
as §3

In experiment [7] the test system is HCC1143. In outline:
as §3

Experiment [8] relates to BT-549. In a few lines:
as §3
The source holds these as a separate data set.

Experiment [9] concerns MDA-MB-231. In a few lines:
as §3

The test system of experiment [10] is MFM-223. In outline: as §3
The subject of experiment [11] is HCC1937. In outline:
as §3

For experiment [12], the system named is Hs578T. In outline: as §3
In experiment [13] the test system is CAL-120. In outline: as §3
The source holds these as a separate data set.

In experiment [14] the test system is MDA-MB-436. In a few lines: as §3
Experiment [15] has as its system CAL-85-1. The procedure: as §1
The test system of experiment [16] is MFM-223. The procedure:
as §1
This is another data set of the same source.

For experiment [17], the system named is DU-4475. In outline: as §2
The source holds these as a separate data set.

For experiment [18], the system named is BT-549. In a few lines:
as §2
This is another data set of the same source.

Experiment [19] has as its system CAL-85-1. In outline:
as §2
The source holds these as a separate data set.

Experiment [20] relates to MFM-223. In outline: as §2
This is another data set of the same source.

Experiment [21] relates to HCC1937. In a few lines: as §2
This is another data set of the same source.

The subject of experiment [22] is Hs578T. In outline: as §2
The source holds these as a separate data set.

Experiment [23] relates to HDQ-P1. In outline: as §2
This is another data set of the same source.

In experiment [24] the test system is MDA-MB-436. In a few lines: as §2
This is another data set of the same source.

Experiment [25] has as its system SK-BR-3. In a few lines:
as §3

The test system of the next experiment is MCF-10A. In a few lines:
as §2

Experiment [26] deals with CAL-51. The procedure:
as §1
This is another data set of the same source.

In experiment [27] the test system is BT-474. The procedure:
as §1

The test system of experiment [28] is HCC1143. The procedure:
as §1
The source holds these as a separate data set.

Experiment [29] concerns MDA-MB-231. The procedure: as §1
The source holds these as a separate data set.

In experiment [30] the test system is HCC1937. The procedure:
as §1
This is another data set of the same source.

Experiment [31] has as its system MDA-MB-453. The procedure: as §1
The subject of experiment [32] is HCC1599. In a few lines: as §2
The subject of experiment [33] is SK-BR-3. In outline: as §2
This is another data set of the same source.

For experiment [34], the system named is HCC1143. In a few lines: as §2
This is another data set of the same source.

Experiment [35] concerns CAL-148. In a few lines: as §2
The source holds these as a separate data set.

In experiment [36] the test system is MDA-MB-231. In outline: as §2
This is another data set of the same source.

The subject of experiment [37] is MDA-MB-453. In a few lines: as §2
This is another data set of the same source.

The test system of experiment [38] is CAL-85-1. In a few lines:
as §3
This is another data set of the same source.

Experiment [39] concerns HCC1599. In a few lines: as §3
The source holds these as a separate data set.

Experiment [40] relates to BT-474. In a few lines: as §3
The source holds these as a separate data set.

The next experiment concerns MDA-MB-468. In outline: as §3

Structures are written as SMILES. Bounds are passed on as bounds.

Regarding `O=C1CCC(N2C(=O)c3ccccc3C2=O)C(=O)N1` (configuration not stated) [Thalidomide], the “EC50, CellTox Green” value with CAL-148 [1] was greater than 10000 nM.

`CN(C)/N=N/c1[nH]cnc1C(N)=O` [Dacarbazine]: in the experiment on CAL-120 [2], the “EC50, CellTiter-Glo” value is greater than 10000 nM.

As for `CC(C)Cn1cnc2c(N)nc3ccccc3c21` [Imiquimod], the “EC50, CellTox Green” value in the experiment on BT-549 [3] is greater than 2500 nM.

In the case of `Cn1c(Nc2ccc(C(F)(F)F)cc2)nc2cc(Oc3ccnc(-c4ncc(C(F)(F)F)[nH]4)c3)ccc21` [RAF265], the “EC50, CellTiter-Blue viability” value with CAL-51 [4] worked out at 915 nM; with DU-4475 [5], 328 nM; in the experiment on HDQ-P1 [6] it was 82.3 nM; with HCC1143 [7], 1.43 nM; with BT-549 [8] it was 4.14 nM; with MDA-MB-231 [9], 141 nM. Also, the “EC50, CellTiter-Blue viability” value in the experiment with MFM-223 [10] was 673 nM; in the experiment on HCC1937 [11] it was 99.1 nM; in the experiment on Hs578T [12], 196 nM; in the experiment with CAL-120 [13] it was 77.8 nM; with MDA-MB-436 [14], 30 nM. Also, the “EC50, CellTox Green” value was found to be 581 nM with BT-549 [3], 139 nM in the experiment on CAL-85-1 [15] and 600 nM with MFM-223 [16]. Besides, the “EC50, CellTiter-Glo” value with DU-4475 [17] stood at 193 nM; in the experiment with BT-549 [18], 377 nM; in the experiment with CAL-85-1 [19] it was 827 nM; with MFM-223 [20], 291 nM; with HCC1937 [21], 163 nM; in the experiment on Hs578T [22], 72.4 nM. For the same compound, the results for the “EC50, CellTiter-Glo” value with HDQ-P1 [23], with CAL-120 [2] and with MDA-MB-436 [24] were 108 nM, 97.2 nM and 137 nM, respectively.

As for `Cn1c(CCCC(=O)O)nc2cc(N(CCCl)CCCl)ccc21` [Bendamustine], in the experiment with SK-BR-3 [25], the “EC50, CellTiter-Blue viability” value was greater than 10000 nM.

For the compound `CCCCCCCCCCCCCCCCCCOP(=O)([O-])OC1CC[N+](C)(C)CC1` [Perifosine], the figures for the “EC50, CellTiter-Glo” value in the experiment with HCC1937 [21], in the experiment with MDA-MB-436 [24] and in the experiment on MCF-10A were 2080 nM, greater than 2500 nM and greater than 2500 nM, respectively.

On to `O=C(CCCCCCC(=O)Nc1ccc([C@H]2O[C@@H](CSc3nc(-c4ccccc4)c(-c4ccccc4)o3)C[C@@H](c3ccc(CO)cc3)O2)cc1)NO` [Tubacin], for which the “EC50, CellTox Green” value with CAL-51 [26] worked out at 2070 nM; with BT-474 [27], 1880 nM; in the experiment on HCC1143 [28], 6850 nM; in the experiment with CAL-85-1 [15], 3160 nM; in the experiment on MDA-MB-231 [29], 2010 nM; in the experiment on HCC1937 [30], 124 nM. In the experiment on MDA-MB-453 [31], the “EC50, CellTox Green” value worked out at 8370 nM. For the same compound, the “EC50, CellTiter-Glo” value was found to be 3820 nM in the experiment with HCC1599 [32]; 1480 nM with DU-4475 [17]; 8750 nM with SK-BR-3 [33]; 6400 nM with HCC1143 [34]; 2900 nM in the experiment on CAL-148 [35]; 7350 nM in the experiment on BT-549 [18]. In addition, the “EC50, CellTiter-Glo” value with CAL-85-1 [19] amounted to 2080 nM; in the experiment on MDA-MB-231 [36], 2430 nM; with MFM-223 [20] it was 3590 nM; in the experiment on HCC1937 [21], 4670 nM; in the experiment with HDQ-P1 [23], 3460 nM; in the experiment on CAL-120 [2], 1610 nM. In addition, in the experiment with MDA-MB-453 [37], the “EC50, CellTiter-Glo” value was found to be 1750 nM.

As to `C#Cc1cccc(Nc2ncnc3cc(OCCOC)c(OCCOC)cc23)c1` [Erlotinib], the “EC50, CellTiter-Blue viability” value in the experiment with CAL-85-1 [38] was 754 nM; in the experiment on HDQ-P1 [6] it was 90.2 nM; in the experiment on HCC1599 [39] it was 103 nM; in the experiment on BT-474 [40] it was 1750 nM; with SK-BR-3 [25], 4990 nM; with HCC1937 [11] it was 937 nM. Moreover, the “EC50, CellTiter-Blue viability” value with MDA-MB-468 was determined as 1510 nM; with CAL-120 [13] it was 2450 nM; in the experiment with MDA-MB-436 [14] it was 840 nM. Also, the “EC50, CellTox Green” value in the experiment with CAL-51 [26] stood at 3160 nM; in the experiment with CAL-85-1 [15], 1590 nM. In addition, the “EC50, CellTiter-Glo” value in the experiment with SK-BR-3 [33] turned out to be 3440 nM; in the experiment on CAL-148 [35], 881 nM; in the experiment with CAL-85-1 [19], 761 nM; in the experiment with HDQ-P1 [23], 28.7 nM; in the experiment on CAL-120 [2], 9090 nM; in the experiment on MDA-MB-436 [24], 7110 nM. The “EC50, CellTiter-Glo” value in the experiment with MCF-10A came to 96 nM.

For `Oc1nc(-c2ccc(C(F)(F)F)cc2)nc2c1CSCC2` [XAV-939], the “EC50, CellTiter-Blue viability” value in the experiment with HDQ-P1 [6] was 2090 nM; in the experiment with HCC1143 [7], greater than 10000 nM; in the experiment on MDA-MB-231 [9], 2590 nM. The “EC50, CellTiter-Glo” value in the experiment with MDA-MB-231 [36] is 172 nM.
